The source made the active and inactive calls.
What was measured:
[1] = nonselective inhibitors of cellular cAMP signaling, dose response, counter-screen for MC4R biased antagonist project, cell-based, TR-FRET cAMP detection (AID 602305); format: functional;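 further: U2OS cells stimulated with forskolin near its EC80 as the cAMP inducer; potency is for inhibition of forskolin-stimulated cAMP signaling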
[2] = molecular target: Melanocortin receptor 4 (Homo sapiens, UniProt P32245); assay: MC4R antagonist potency on cAMP, dose response, cell-based, TR-FRET, biased antagonists (AID 602298); format: functional;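 further: antagonist potency against agonist-stimulated cAMP production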
Sequence of Melanocortin receptor 4 (P32245 whole entry): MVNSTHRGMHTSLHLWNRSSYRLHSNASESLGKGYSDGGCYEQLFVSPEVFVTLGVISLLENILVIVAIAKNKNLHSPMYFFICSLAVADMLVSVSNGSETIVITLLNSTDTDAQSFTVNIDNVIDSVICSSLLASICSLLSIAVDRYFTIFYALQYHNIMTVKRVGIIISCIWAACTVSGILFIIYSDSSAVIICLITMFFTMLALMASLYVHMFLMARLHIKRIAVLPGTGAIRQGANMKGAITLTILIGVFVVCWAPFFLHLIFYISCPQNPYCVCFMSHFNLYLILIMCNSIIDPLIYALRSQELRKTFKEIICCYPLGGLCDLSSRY

[3] = molecular target: Multidrug resistance protein CDR1 (Candida albicans, UniProt P43071); assay: CaCDR1 efflux pump inhibitors in yeast, dose response, S. cerevisiae AD1-8u, singleplex, Cherry Pick1 hits (AID 588606); format: functional
Sequence of Multidrug resistance protein CDR1 (P43071 whole entry, looked up): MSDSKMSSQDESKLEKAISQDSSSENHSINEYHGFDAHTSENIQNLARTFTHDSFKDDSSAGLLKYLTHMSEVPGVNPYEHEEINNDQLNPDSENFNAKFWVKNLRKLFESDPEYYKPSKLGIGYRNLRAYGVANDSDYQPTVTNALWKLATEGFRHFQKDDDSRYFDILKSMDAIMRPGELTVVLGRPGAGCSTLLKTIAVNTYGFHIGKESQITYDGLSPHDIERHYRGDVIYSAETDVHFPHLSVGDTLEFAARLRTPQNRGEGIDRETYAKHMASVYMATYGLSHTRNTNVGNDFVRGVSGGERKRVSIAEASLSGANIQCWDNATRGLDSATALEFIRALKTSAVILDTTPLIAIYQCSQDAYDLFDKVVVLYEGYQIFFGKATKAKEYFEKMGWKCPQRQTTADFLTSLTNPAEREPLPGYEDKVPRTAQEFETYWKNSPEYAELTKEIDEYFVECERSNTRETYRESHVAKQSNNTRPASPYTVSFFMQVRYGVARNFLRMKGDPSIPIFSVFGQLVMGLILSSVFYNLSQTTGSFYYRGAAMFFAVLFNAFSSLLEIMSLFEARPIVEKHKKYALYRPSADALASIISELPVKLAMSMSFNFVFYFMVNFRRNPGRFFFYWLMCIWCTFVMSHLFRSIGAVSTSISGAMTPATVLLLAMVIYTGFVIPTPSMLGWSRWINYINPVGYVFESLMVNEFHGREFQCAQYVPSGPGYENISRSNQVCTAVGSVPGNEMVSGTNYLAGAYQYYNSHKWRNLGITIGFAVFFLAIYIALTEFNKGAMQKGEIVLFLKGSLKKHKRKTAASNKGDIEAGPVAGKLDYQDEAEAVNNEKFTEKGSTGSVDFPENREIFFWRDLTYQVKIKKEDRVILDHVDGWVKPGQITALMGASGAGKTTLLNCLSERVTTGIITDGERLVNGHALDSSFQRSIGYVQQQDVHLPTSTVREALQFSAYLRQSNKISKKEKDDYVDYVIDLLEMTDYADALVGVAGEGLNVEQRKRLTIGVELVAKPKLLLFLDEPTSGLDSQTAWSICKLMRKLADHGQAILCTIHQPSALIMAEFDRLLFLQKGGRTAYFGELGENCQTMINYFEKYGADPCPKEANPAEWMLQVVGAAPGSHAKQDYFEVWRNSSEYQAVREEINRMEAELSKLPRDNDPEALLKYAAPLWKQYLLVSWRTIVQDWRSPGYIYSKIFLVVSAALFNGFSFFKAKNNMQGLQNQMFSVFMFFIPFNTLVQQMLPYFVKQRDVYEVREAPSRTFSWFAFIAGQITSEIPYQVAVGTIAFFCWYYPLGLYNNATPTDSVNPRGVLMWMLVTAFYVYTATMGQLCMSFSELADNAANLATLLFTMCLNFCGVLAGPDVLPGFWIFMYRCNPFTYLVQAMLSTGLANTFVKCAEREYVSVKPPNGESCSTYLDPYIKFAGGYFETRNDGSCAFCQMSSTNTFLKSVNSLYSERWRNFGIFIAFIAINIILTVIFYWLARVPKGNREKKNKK

[4] = molecular target: T1, Insulin-degrading enzyme (Homo sapiens, UniProt P14735); assay: activators of endogenous IDE in HEK cells, dose response, cell-based, fluorescence polarization (AID 588439); format: functional
T1 sequence (P14735 whole entry): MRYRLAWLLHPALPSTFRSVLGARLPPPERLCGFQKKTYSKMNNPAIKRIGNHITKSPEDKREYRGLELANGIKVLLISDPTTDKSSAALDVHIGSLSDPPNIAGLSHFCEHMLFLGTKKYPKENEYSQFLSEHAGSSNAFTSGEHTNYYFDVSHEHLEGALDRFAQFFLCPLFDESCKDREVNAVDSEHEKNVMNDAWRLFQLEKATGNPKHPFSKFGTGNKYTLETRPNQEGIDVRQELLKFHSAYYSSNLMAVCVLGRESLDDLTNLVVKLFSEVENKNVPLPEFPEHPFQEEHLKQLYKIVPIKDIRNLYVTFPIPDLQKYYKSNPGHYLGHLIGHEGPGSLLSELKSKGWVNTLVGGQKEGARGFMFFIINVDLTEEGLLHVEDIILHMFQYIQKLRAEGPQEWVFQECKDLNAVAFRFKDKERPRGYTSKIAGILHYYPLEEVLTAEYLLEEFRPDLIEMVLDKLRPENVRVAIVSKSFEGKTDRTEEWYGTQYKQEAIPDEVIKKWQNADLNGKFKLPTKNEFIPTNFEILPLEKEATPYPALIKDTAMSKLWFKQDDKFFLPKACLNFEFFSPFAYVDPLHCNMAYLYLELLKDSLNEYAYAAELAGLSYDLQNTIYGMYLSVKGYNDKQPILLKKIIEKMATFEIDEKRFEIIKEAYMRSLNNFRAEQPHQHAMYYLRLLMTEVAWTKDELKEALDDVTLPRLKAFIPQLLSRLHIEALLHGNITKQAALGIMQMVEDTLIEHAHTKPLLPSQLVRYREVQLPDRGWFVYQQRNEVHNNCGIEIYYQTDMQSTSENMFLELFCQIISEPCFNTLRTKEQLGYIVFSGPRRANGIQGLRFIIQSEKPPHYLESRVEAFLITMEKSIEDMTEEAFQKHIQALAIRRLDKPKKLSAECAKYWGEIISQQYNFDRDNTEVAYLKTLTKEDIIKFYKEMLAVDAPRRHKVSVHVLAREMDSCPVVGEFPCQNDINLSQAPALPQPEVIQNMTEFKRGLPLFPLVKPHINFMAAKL

[5] = molecular target: T1, Insulin-degrading enzyme; assay: activators of recombinant IDE enzyme, dose response, counter-screen for IDE activator project, biochemical, fluorescence polarization (AID 588681)
[6] = system: HEK293; assay: HEK cell cytotoxicity by LDH release, dose response, cytotoxicity control for IDE activator project, fluorescence, HEK cells (AID 588440); format: functional, cell-based; conditions: Homo sapiens;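 further: cytotoxicity by LDH release measuring loss of membrane integrity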
[7] = system: HEK293; assay: optical interference in Abeta FP readout, dose response, artefact control for IDE activator project, biochemical, fluorescence polarization (AID 588442); format: functional, cell-based; conditions: Homo sapiens
[8] = molecular target: T2, CAAX prenyl protease 2 (Saccharomyces cerevisiae S288c, UniProt Q03530); format: biochemical
T2 sequence (Q03530 whole entry): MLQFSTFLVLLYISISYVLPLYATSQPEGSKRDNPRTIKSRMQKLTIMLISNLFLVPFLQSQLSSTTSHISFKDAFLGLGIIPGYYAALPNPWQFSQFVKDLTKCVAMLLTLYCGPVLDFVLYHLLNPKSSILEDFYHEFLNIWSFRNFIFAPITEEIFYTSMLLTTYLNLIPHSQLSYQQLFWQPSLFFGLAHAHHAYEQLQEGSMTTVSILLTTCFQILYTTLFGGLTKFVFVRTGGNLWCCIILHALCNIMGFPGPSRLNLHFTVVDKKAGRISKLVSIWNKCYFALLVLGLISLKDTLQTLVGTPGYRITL

[9] = molecular target: T3, Cytochrome P450 1A2 (Homo sapiens, UniProt P05177);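 further: PubChem cytochrome P450 panel assay, CYP1A2 panel member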
T3 sequence (P05177 whole entry): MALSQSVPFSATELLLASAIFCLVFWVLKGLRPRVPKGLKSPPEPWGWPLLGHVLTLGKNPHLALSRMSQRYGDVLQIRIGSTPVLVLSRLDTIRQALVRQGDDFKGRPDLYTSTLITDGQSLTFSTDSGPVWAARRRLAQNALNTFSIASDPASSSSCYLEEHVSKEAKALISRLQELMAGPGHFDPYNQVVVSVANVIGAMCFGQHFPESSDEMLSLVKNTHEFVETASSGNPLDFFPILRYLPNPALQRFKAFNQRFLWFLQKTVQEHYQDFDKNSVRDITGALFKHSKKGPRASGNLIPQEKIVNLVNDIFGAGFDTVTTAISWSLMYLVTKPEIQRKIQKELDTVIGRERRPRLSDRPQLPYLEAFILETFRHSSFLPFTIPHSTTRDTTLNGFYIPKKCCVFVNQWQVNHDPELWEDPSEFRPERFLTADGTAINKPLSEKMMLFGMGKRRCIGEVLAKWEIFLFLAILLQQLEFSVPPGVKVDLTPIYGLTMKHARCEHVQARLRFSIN

[10] = molecular target: ATP-dependent molecular chaperone HSP82 (Candida albicans (strain WO-1) (Yeast), UniProt C4YTQ8); assay: loss of DOC-induced GRE-beta-galactosidase reporter signal, dose response, Hsp90 inhibitor project, S. cerevisiae, luminescence (AID 2400); format: functional, cell-based;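 further: beta-galactosidase luminescence from glucocorticoid response element reporter as proxy for Hsp90 function; inhibitor potency where signal loss means Hsp90 inhibition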
[11] = molecular target: T4, Hexokinase HKDC1 (Homo sapiens, UniProt Q2TB90); assay: HKDC1 hexokinase inhibitors, dose response, biochemical, W721R variant (AID 504729); format: functional
T4 sequence (Q2TB90 whole entry): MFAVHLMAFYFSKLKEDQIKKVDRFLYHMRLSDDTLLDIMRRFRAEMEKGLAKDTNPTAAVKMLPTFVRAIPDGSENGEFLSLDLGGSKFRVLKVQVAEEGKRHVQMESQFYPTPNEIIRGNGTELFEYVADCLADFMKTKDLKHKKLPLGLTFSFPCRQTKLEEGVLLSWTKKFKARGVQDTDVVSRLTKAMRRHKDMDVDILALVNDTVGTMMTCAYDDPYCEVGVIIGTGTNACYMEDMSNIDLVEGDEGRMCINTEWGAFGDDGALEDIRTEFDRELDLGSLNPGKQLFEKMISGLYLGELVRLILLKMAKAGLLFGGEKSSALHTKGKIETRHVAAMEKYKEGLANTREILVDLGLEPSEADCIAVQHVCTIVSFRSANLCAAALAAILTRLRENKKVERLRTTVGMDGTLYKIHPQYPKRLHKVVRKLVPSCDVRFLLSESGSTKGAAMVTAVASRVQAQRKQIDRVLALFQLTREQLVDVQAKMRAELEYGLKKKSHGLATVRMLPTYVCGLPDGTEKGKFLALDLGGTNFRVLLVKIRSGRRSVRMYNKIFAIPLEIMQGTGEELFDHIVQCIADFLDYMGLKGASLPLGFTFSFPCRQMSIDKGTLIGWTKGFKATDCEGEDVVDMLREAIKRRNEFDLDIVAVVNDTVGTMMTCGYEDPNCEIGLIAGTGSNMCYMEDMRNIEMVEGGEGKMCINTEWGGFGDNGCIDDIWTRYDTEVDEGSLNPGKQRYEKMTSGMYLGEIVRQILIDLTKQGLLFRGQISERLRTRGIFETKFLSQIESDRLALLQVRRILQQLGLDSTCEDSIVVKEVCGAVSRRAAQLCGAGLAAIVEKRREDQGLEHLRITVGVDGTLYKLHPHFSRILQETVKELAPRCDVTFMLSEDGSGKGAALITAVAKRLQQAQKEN

[12] = molecular target: Cytochrome P450 2C9 (Homo sapiens, UniProt P11712)
[13] = molecular target: T5, Hepatocyte nuclear factor 4-alpha (Homo sapiens, UniProt P41235); format: functional, cell-based;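 further: biochemical luminescence-based dose-response counterscreen measuring inhibition of HNF4 dimerization, run alongside a screen for blockers of ABHD5–perilipin-5 interaction; split luciferase complementation of HNF4 fusion proteins in cell lysate measuring dimerization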
T5 sequence (P41235 whole entry): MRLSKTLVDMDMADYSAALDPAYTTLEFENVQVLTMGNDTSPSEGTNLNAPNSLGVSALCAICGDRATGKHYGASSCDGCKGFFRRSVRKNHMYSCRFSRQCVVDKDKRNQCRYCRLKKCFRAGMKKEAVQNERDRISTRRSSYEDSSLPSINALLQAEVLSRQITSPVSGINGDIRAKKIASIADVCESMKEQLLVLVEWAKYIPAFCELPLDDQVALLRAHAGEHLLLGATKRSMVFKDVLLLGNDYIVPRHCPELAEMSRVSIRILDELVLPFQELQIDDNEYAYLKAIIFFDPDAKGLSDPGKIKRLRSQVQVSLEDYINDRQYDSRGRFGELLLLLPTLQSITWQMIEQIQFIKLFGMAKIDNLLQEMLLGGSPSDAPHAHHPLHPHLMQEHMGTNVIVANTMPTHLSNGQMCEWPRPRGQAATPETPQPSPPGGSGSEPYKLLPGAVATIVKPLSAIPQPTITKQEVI

[14] = molecular target: Paired box protein Pax-8 (Homo sapiens, UniProt Q06710); assay: inhibitors of PAX8-driven TPO luciferase reporter, dose response, RMG-I cells, cherry-pick (AID 687027); format: functional, cell-based;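 further: luciferase reporter driven by Pax8 target thyroperoxidase promoter measured by SteadyGlo luminescence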
Sequence of Paired box protein Pax-8 (Q06710 whole entry): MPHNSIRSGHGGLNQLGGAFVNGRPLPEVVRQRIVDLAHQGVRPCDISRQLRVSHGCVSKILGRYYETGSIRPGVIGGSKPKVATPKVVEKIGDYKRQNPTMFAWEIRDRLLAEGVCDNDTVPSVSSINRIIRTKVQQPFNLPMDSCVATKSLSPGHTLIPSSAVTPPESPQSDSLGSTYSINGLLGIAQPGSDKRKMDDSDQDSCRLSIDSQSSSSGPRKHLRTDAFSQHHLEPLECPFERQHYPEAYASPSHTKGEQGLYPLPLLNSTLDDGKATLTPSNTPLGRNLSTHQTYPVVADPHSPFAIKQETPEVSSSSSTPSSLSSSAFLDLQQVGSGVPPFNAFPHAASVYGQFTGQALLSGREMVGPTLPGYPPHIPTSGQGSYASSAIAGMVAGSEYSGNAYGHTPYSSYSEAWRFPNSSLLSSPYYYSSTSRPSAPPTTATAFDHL

[15] = molecular target: T6, DNA repair protein RAD52 homolog (Homo sapiens, UniProt P43351); format: functional, biochemical
T6 sequence (P43351 whole entry): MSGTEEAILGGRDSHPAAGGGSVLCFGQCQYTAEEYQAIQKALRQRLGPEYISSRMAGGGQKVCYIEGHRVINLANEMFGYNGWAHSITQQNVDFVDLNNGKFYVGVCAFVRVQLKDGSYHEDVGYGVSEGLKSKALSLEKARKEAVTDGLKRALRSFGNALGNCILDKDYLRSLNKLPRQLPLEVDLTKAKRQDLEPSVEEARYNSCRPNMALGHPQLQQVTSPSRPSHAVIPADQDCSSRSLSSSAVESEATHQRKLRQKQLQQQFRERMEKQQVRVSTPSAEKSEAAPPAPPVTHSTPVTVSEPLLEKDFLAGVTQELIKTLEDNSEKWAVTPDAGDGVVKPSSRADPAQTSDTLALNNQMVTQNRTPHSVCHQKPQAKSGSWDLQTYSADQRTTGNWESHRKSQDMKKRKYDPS

[16] = molecular target: T7, Ubiquitin-conjugating enzyme E2 N (Homo sapiens, UniProt P61088); format: functional
T7 sequence (P61088 whole entry): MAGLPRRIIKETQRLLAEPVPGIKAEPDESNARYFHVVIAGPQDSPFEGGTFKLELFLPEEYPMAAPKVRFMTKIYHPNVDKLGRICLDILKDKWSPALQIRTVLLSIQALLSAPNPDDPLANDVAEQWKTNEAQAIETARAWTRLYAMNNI

[17] = molecular target: T7, Ubiquitin-conjugating enzyme E2 N; format: functional; remark: listed apart in the source
[18] = molecular target: T8, Bcl-2-related protein A1 (Mus musculus, UniProt Q07440); format: functional;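 further: confirmatory dose–response counterscreen on Bfl-1, used to check hits from a UBC13 polyubiquitin inhibitor campaign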
T8 sequence (Q07440 whole entry): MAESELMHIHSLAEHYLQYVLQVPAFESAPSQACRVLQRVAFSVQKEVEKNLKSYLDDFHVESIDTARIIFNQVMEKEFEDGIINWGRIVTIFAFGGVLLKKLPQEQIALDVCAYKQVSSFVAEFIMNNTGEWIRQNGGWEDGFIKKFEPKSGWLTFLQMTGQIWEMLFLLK

[19] = Luminescence Cell-Based Dose Retest to Confirm Inhibitors of Cancer Stem Cells. [Related pubchem assays (depositor defined):AID2717, AID2721]; format: functional; conditions: Homo sapiens
[20] = molecular target: Serine/threonine-protein kinase TAO1 (Homo sapiens, UniProt Q7L7X3); format: functional
Sequence of Serine/threonine-protein kinase TAO1 (Q7L7X3 whole entry): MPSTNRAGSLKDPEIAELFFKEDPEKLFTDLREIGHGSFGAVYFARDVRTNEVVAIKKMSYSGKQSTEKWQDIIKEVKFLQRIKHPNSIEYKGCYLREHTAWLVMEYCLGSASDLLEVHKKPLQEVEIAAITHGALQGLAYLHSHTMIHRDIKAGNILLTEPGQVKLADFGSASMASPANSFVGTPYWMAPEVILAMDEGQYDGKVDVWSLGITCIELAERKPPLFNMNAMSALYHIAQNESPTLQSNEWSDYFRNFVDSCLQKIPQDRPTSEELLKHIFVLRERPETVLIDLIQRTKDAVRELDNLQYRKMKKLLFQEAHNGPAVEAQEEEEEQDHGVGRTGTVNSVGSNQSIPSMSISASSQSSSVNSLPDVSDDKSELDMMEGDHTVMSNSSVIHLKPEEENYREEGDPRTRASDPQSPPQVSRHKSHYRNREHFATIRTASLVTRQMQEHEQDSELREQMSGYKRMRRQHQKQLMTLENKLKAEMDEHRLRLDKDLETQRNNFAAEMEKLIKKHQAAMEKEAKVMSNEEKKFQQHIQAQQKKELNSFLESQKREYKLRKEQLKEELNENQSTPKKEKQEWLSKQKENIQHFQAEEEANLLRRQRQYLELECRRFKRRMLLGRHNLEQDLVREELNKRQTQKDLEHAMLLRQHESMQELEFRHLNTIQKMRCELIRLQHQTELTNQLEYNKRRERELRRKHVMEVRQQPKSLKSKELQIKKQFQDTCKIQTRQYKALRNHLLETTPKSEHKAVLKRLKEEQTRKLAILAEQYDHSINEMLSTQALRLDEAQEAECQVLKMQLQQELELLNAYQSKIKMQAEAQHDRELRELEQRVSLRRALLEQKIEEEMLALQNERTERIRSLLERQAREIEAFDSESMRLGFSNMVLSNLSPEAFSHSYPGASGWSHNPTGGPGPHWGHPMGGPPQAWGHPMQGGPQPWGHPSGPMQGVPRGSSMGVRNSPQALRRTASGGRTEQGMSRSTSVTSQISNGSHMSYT

[21] = HeLa 2N DNA content increase, dose response, cell-based, IC50 (AID 1117349); format: functional
[22] = HeLa 4N DNA content increase, dose response, cell-based, IC50 (AID 1117351); format: functional
[23] = molecular target: Serine/threonine-protein kinase D2 (Homo sapiens, UniProt Q9BZL6); format: functional;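 further: measured against PRKD2 as one member of a kinome-wide kinase profiling panel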
Sequence of Serine/threonine-protein kinase D2 (Q9BZL6 whole entry): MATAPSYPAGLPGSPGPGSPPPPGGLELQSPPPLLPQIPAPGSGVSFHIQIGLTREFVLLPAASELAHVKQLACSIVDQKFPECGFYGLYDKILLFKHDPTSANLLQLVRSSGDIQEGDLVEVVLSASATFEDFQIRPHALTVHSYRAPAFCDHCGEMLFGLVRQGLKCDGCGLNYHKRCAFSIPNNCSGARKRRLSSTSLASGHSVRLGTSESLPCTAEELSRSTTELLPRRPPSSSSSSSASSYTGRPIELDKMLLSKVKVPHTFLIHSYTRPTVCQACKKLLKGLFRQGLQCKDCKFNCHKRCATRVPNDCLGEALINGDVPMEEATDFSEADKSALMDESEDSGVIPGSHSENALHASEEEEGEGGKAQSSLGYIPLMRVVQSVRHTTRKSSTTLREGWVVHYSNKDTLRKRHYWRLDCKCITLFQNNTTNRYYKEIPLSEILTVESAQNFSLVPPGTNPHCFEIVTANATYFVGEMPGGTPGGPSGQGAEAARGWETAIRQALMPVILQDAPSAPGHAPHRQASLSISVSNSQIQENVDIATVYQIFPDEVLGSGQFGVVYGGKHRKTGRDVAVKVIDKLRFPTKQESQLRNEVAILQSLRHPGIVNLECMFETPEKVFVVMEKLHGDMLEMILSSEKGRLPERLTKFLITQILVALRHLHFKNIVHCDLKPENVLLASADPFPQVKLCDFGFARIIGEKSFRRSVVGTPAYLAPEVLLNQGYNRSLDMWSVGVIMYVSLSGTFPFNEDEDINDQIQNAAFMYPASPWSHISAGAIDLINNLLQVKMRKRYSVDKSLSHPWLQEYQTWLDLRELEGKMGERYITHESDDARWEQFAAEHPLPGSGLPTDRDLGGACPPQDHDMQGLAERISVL

[24] = molecular target: Protein disulfide-isomerase (Homo sapiens, UniProt P07237); assay: PDI inhibitors, insulin aggregation turbidity, dose response, biochemical, absorbance, cherry-picked samples (AID 602350); format: functional
Sequence of Protein disulfide-isomerase (P07237 whole entry): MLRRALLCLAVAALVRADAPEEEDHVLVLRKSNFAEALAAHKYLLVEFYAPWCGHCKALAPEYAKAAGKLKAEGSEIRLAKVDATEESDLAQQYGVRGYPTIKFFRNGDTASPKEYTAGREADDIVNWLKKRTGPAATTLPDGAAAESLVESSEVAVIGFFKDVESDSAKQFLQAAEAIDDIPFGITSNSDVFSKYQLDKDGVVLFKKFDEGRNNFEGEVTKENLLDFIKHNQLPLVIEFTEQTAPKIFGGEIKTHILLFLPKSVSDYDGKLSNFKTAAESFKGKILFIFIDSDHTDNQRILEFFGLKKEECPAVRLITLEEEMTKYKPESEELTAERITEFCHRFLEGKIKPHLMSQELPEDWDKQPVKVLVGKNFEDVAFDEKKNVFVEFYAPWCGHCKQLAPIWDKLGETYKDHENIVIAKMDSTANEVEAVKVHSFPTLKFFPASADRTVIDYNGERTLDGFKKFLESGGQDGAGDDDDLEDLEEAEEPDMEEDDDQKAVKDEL

[25] = molecular target: Dual specificity tyrosine-phosphorylation-regulated kinase 1A (Rattus norvegicus, UniProt Q63470); format: biochemical, Homo sapiens

## CCc1cc2ccc(OC)cc2nc1SCC(=O)N1CCN(C(=O)c2ccco2)CC1
[1]
  IC50: > 64.6 µM (inactive)
[2]
  IC50: > 64.6 µM (inactive)

## CCOc1ccc(NC(=O)CSc2nnc(Cc3cccn3C)n2-c2ccc(F)cc2)cc1
[3]
  EC50: 13 nM (active)

## CCc1ccc(-c2nc(C[S+]([O-])CC(=O)O)c(C)o2)cc1 (stereo not given)
[4]
  EC50: > 54.7 µM (inactive)
[5]
  EC50: > 54.7 µM (inactive)
[6]
  IC50: > 89.2 µM (inactive)
[7]
  EC50: > 55.9 µM (inactive)

## [H]/N=C(\N/C(=N/[H])NCCCCCCNC(=N)NC(=N)Nc1ccc(Cl)cc1)Nc1ccc(Cl)cc1 [CHLORHEXIDINE]
[8]
  AC50: 5.69 µM (active)
[9]
  AC50: 15.8 µM (inconclusive)
[10]
  EC50: > 150 µM (inactive)
[11]
  IC50: 8.99 µM (active)
[2]
  IC50: 2 µM (active)
[12]
  AC50: 15.8 µM (inconclusive)
[13]
  IC50: 23.5 µM (inactive)
[14]
  AC50: 5.69 µM (active)
[15]
  AC50: 1.7 µM (active)
[16]
  IC50: 3.01 µM (active)
[17]
  IC50: 2.2 µM (active)
[18]
  IC50: > 20 µM (inactive)

## Cc1cccc(N2CCN(C(S)=Nc3ccc4nc(N5CCN(C)CC5)cc(C)c4c3)CC2C)c1 (stereo not given)
[4]
  EC50: > 54.7 µM (inactive)
[19]
  AC50: 7.58 µM (active)
[5]
  EC50: > 54.7 µM (inactive)
[6]
  IC50: 8.41 µM (active)
[7]
  EC50: > 54.7 µM (inactive)

## Clc1ccc(Nc2nnc(Cc3ccncc3)c3ccccc23)cc1 [VATALANIB]
[20]
  Ki: > 7.94 µM (inactive)
[21]
  IC50: > 10 µM (inactive)
[22]
  IC50: > 10 µM (inactive)
[23]
  Ki: > 10 µM (inactive)

## C[C@@H]1O[C@@H](OC[C@@H]2O[C@H](Oc3c(-c4ccc(O)cc4)oc4cc(O)cc(O)c4c3=O)[C@@H](O)[C@H](O)[C@H]2O)[C@H](O)[C@H](O)[C@H]1O
[24]
  AC50: 3.51 µM (active)
[25]
  AC50: 6.66 µM (active)

Source: ChEMBL document CHEMBL1201862, “PubChem BioAssay data set” (2004)
